Columns and labels:
[1] = tested on: artificial skin (skin model: contracted collagen gel with human dermal fibroblasts plus epidermal keratinocytes); assay: Artificial skin culture with matrix metalloproteinase inhibitor: basement membrane formation seen in cross-section (Example 1, FIG. 1); format: cell-based; conditions: cultured 2 weeks, versus control without inhibitor
Procedure: Collagen gel was obtained by preparing 10 ml of a collagen solution of suspended fibroblasts (0.3 to 1×10^5 cells/ml) originating in human dermis (product I-AC of Koken Co., Ltd. was used for the collagen) on ice followed by gelling the collagen at 37° C. in a 60 mm Petri dish. Next, the gel was peeled from the walls of the Petri dish and the collagen gel was contracted in a CO2 incubator.
This contracted collagen gel equivalent to dermis was placed on a metal mesh and a glass ring (inner diameter: 12 mm) was placed over this gel. 0.4 ml of a suspension of epidermal keratinocytes (1×10^6/ml) (mixed medium of KGM-DMEM containing 5% fetal calf serum (1:1)) were placed inside the glass ring to prevent leakage of liquid. After adhering keratinocytes in a CO2 incubator overnight, the ring was removed on the following day.
After inoculating the epidermic cells, the medium was changed to that containing either (1) 10 μM CGS27023A (matrix metalloproteinase inhibitor) or (2) 300 μM MMP-inhibitor (p-NH2-Bz-Gly-Pro-D-Leu-D-Ala-NHOH (FN-437) (BBRC, 1994, 199, p. 1442-1446) (acquired from Cabbiochem. Novabiochem Corporation) (matrix metalloproteinase inhibitor)) starting in the first week, and then replaced with medium containing the same type and same concentration of matrix metalloproteinase inhibitor every 2-3 days after that and cultured for 2 weeks. […]

[2] = tested on: Skin Model (artificial skin); basement membrane components laminin 5, type IV collagen, type VII collagen; assay: Artificial skin culture with MMP inhibitor and matrix protein production promoting agent: H&E staining and immunostaining for LN5, IVC, VIIC (Example 2, Table 1, FIG. 2-4); format: cell-based, human; conditions: CGS27023A 10 μM, TGFa/TGFb1 10 ng/ml, versus control
Procedure: Although the same method as Example 1 was repeated, the following substances were used as test substances. • (1) 10 μM matrix metalloproteinase inhibitor CGS27023A only; • (2) 10 μM matrix metalloproteinase inhibitor CGS27023A and 10 ng/ml of matrix […] protein production promoting agent, Transforming Growth Factor α (TGFa); • (3) 10 μM matrix metalloproteinase inhibitor CGS27023A and 10 ng/ml of matrix protein production promoting agent, Transforming Growth Factor β1 (TGFb1); • (4) 10 μM matrix metalloproteinase inhibitor CGS27023A, 10 ng/ml of matrix protein production promoting agent, Transforming Growth Factor α (TGFa) and 10 ng/ml of Transforming Growth Factor β1 (TGFb1); and • (5) culturing of a control to which none of the above were added. The formed artificial skin was stained by hematoxylin-eosin (H & E) and immunostaining (using anti-laminin 5 (LN5) antibody, anti-type IV collagen (IVC) antibody, and anti-type VII collagen (VIIC) antibody). Culturing was carried out in the same manner as above using the following plant extracts instead of the above matrix metalloproteinase inhibitor CGS27023A.

Compound | Promotion of basement membrane formation (FIG. 1) ([1]; 300 μM in medium) | Adhesion between epidermis and dermis [2] | Promotion of basement membrane formation (FIG. 1) ([1]; 10 μM in medium)
p-NH2-Bz-Gly-Pro-D-Leu-Ala-NHOH [MMP-inhibitor] | promotion of basement membrane formation was clearly observed |  | 
COc1ccc(S(=O)(=O)N(Cc2cccnc2)[C@@H](C(=O)NO)C(C)C)cc1.Cl [CGS27023A, N-hydroxy-2(R)-[[(4-methoxyphenyl)sulfonyl](3-picolyl)amino]-3-methylbutanamide hydrochloride] |  | adhesion between the epidermis and dermis was clear | promotion of basement membrane formation was clearly observed
